In ChEMBL document CHEMBL5356978 (Bioorg Med Chem Lett, 2024):
The source made the active and inactive calls. The calls are words filed in the database; no cut-off is given here.

Molecular target: T1, beta-catenin-B-cell lymphoma 9 protein complex (Homo sapiens, UniProt P35222)
T1 sequence (P35222 whole entry): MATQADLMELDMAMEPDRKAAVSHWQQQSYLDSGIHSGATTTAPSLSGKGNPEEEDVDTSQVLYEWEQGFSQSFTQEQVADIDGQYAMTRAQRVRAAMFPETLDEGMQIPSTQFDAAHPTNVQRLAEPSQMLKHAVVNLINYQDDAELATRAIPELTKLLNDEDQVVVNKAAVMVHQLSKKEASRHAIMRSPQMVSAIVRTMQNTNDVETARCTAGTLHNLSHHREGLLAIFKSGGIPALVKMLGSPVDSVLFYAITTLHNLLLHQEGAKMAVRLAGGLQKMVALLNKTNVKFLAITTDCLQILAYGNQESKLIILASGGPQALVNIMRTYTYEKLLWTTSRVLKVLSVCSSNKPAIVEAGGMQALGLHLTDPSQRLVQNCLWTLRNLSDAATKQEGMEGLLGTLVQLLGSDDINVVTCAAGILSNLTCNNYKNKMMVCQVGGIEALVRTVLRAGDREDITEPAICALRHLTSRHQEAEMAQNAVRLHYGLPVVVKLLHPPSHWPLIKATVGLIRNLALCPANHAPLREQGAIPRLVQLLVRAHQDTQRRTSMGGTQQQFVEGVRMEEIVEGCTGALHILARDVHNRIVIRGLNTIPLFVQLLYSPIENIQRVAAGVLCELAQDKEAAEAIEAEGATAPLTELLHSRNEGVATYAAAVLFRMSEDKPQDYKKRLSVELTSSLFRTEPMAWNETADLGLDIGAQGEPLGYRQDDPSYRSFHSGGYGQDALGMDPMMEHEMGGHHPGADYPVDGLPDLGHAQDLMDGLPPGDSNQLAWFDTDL
T1 sequence (O00512 whole entry): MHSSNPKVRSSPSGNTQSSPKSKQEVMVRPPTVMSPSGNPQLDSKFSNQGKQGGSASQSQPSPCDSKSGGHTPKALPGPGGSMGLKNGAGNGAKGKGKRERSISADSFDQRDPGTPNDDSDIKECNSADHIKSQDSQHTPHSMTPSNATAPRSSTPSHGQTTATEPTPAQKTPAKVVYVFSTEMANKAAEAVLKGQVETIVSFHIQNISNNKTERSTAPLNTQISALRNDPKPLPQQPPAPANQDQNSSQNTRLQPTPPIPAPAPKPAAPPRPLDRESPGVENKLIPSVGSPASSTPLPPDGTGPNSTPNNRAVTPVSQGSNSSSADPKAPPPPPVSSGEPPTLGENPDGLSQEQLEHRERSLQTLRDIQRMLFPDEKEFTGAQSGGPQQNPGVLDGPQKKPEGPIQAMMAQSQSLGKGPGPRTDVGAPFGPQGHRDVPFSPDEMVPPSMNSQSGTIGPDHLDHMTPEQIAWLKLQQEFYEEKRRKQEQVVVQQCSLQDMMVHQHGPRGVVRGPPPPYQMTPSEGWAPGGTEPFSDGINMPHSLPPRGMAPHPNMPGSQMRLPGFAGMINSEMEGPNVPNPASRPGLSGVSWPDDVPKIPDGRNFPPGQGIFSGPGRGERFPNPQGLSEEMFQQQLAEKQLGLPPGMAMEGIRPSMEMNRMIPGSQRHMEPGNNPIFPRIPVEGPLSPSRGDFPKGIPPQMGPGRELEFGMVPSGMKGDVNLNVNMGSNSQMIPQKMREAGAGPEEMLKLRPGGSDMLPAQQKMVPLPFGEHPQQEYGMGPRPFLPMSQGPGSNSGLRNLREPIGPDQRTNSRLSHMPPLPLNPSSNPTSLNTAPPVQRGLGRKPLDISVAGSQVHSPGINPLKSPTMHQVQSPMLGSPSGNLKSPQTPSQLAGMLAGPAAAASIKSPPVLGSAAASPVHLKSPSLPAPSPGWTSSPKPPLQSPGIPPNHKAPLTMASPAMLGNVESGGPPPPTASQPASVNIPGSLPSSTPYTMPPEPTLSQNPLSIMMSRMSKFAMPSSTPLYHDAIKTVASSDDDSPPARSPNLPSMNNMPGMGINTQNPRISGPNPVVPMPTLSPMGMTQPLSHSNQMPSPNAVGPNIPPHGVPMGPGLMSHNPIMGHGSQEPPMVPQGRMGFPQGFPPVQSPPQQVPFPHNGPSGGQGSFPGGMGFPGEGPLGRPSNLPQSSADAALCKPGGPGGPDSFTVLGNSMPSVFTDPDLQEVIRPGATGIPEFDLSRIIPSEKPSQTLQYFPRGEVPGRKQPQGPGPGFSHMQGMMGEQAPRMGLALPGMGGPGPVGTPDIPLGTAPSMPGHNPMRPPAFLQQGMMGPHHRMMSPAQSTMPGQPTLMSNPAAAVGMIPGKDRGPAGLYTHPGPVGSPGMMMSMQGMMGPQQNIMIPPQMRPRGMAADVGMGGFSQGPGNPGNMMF
Test: Inhibition of full length beta-catenin (unknown origin)/FAM labeled BCL9 (350 to 375 residues) (unknown origin) protein-protein interaction by competitive FP assay
Type: protein-complex assay
Conditions: not given

Row | Structure (SMILES) | IC50 [µM]
1 | COc1ccc(-c2oc3c(-c4ccc(F)cc4)c(OC)cc(OC)c3c(=O)c2OC)cc1OC | 6.93
2 | COC(=O)c1ccc(-c2c(OC)cc(OC)c3c(=O)c(OC)c(-c4ccc(OC)c(OC)c4)oc23)cc1 | 7.64
3 | O=c1c(O)c(-c2ccc(O)c(O)c2)oc2c(-c3ccc(F)cc3)c(O)cc(O)c12 | 2.35
4 | COc1ccc(-c2oc3c(-c4ccncc4)c(OC)cc(OC)c3c(=O)c2OC)cc1OC | 2.75
5 | COc1ccc(-c2oc3c(Nc4ccccc4)c(OC)cc(OC)c3c(=O)c2OC)cc1OC | 16.2
6 | COc1ccc(-c2oc3c(-c4ccc(C(=O)O)cc4)c(OC)cc(OC)c3c(=O)c2OC)cc1OC | 4.52
7 | COc1ccc(-c2oc3c(-c4ccc(C)cc4)c(OC)cc(OC)c3c(=O)c2OC)cc1OC | 5.24

Test system: not listed separately
Test: Inhibition of Wnt/beta-catenin signaling pathway in mouse CT26 cells assessed as downregulation of AXIN2 expression incubated for 24 hrs by qPCR analysis
Conditions: CT26, 24 h

Row | Structure (SMILES) | IC50 [µM]
8 | COc1ccc(-c2oc3c(-c4ccc(F)cc4)c(OC)cc(OC)c3c(=O)c2OC)cc1OC | 4.57
9 | COC(=O)c1ccc(-c2c(OC)cc(OC)c3c(=O)c(OC)c(-c4ccc(OC)c(OC)c4)oc23)cc1 | 12
10 | O=c1c(O)c(-c2ccc(O)c(O)c2)oc2c(-c3ccc(F)cc3)c(O)cc(O)c12 | 0.8
11 | COc1ccc(-c2oc3c(-c4ccncc4)c(OC)cc(OC)c3c(=O)c2OC)cc1OC | 3.1
12 | COc1ccc(-c2oc3c(Nc4ccccc4)c(OC)cc(OC)c3c(=O)c2OC)cc1OC | 1.09
13 | COc1ccc(-c2oc3c(-c4ccc(C(=O)O)cc4)c(OC)cc(OC)c3c(=O)c2OC)cc1OC | 10.4
14 | COc1ccc(-c2oc3c(-c4ccc(C)cc4)c(OC)cc(OC)c3c(=O)c2OC)cc1OC | 1.97
15 | Cc1ccc(-c2c(O)cc(O)c3c(=O)c(O)c(-c4ccc(O)c(O)c4)oc23)cc1 | 0.76
16 | O=c1c(O)c(-c2ccc(O)c(O)c2)oc2cc(O)cc(O)c12 [QUERCETIN] | 7.7

Test system: CT26
Test: Antiproliferative activity against mouse CT26 cells harboring active Wnt/beta-catenin signal assessed as inhibition of cell proliferation by CCK8 assay
Conditions: not given

Row | Structure (SMILES) | IC50 [µM]
17 | COc1ccc(-c2oc3c(-c4ccc(F)cc4)c(OC)cc(OC)c3c(=O)c2OC)cc1OC | 19.8
18 | COC(=O)c1ccc(-c2c(OC)cc(OC)c3c(=O)c(OC)c(-c4ccc(OC)c(OC)c4)oc23)cc1 | 16
19 | O=c1c(O)c(-c2ccc(O)c(O)c2)oc2c(-c3ccc(F)cc3)c(O)cc(O)c12 | 3.32
20 | COc1ccc(-c2oc3c(-c4ccncc4)c(OC)cc(OC)c3c(=O)c2OC)cc1OC | 14.2
21 | COc1ccc(-c2oc3c(Nc4ccccc4)c(OC)cc(OC)c3c(=O)c2OC)cc1OC | 2.49
22 | COc1ccc(-c2oc3c(-c4ccc(C(=O)O)cc4)c(OC)cc(OC)c3c(=O)c2OC)cc1OC | 14.1
23 | COc1ccc(-c2oc3c(-c4ccc(C)cc4)c(OC)cc(OC)c3c(=O)c2OC)cc1OC | 11.4
24 | Cc1ccc(-c2c(O)cc(O)c3c(=O)c(O)c(-c4ccc(O)c(O)c4)oc23)cc1 | 1.69

Test system: HCT-116
Test: Antiproliferative activity against human HCT-116 cells assessed as inhibition of cell proliferation by CCK8 assay
Conditions: not given

Row | Structure (SMILES) | IC50 [µM]
25 | Cc1ccc(-c2c(O)cc(O)c3c(=O)c(O)c(-c4ccc(O)c(O)c4)oc23)cc1 | 1.7
26 | O=c1c(O)c(-c2ccc(O)c(O)c2)oc2cc(O)cc(O)c12 [QUERCETIN] | 11.4

Test system: not listed separately
Test: Inhibition of Wnt/beta-catenin signaling transactivation in human HCT-116 cells assessed as reduction in downstream nuclear transcription ability by TCF/LEF reporter assay
Conditions: not given

Row | Structure (SMILES) | IC50 [µM]
27 | Cc1ccc(-c2c(O)cc(O)c3c(=O)c(O)c(-c4ccc(O)c(O)c4)oc23)cc1 | 0.76
28 | O=c1c(O)c(-c2ccc(O)c(O)c2)oc2cc(O)cc(O)c12 [QUERCETIN] | 4.87

Test system: CT26
Test: Induction of apoptosis in mouse CT26 cells at 5 uM incubated for 24 hrs by annexin V-FITC/PI staining based flow cytometry analysis relative to control
Type: functional
Conditions: not given

Row | Structure (SMILES) | Activity [%]
29 | Cc1ccc(-c2c(O)cc(O)c3c(=O)c(O)c(-c4ccc(O)c(O)c4)oc23)cc1 | 29.11
30 | O=c1c(O)c(-c2ccc(O)c(O)c2)oc2cc(O)cc(O)c12 [QUERCETIN] | 17.36

Test system: CT26
Test: Induction of apoptosis in mouse CT26 cells at 20 uM incubated for 24 hrs by annexin V-FITC/PI staining based flow cytometry analysis relative to control
Type: functional
Conditions: not given

Row | Structure (SMILES) | Activity [%]
31 | Cc1ccc(-c2c(O)cc(O)c3c(=O)c(O)c(-c4ccc(O)c(O)c4)oc23)cc1 | 34.03
32 | O=c1c(O)c(-c2ccc(O)c(O)c2)oc2cc(O)cc(O)c12 [QUERCETIN] | 23.89

Test system: CT26
Test: Induction of apoptosis in mouse CT26 cells assessed as increase in late apoptotic cells at 5 to 20 uM incubated for 24 hrs by annexin V-FITC/PI staining based flow cytometry analysis
Type: functional, cell-based
Conditions: dose 5-20 µM

Row | Structure (SMILES) | Activity
33 | Cc1ccc(-c2c(O)cc(O)c3c(=O)c(O)c(-c4ccc(O)c(O)c4)oc23)cc1 | Active

Test system: CT26
Test: Antimigratory activity in mouse CT26 cells assessed as reduction in cell migration incubated for 24 hrs by transwell assay
Type: functional, cell-based
Conditions: dose 5-20 µM

Row | Structure (SMILES) | Activity
34 | Cc1ccc(-c2c(O)cc(O)c3c(=O)c(O)c(-c4ccc(O)c(O)c4)oc23)cc1 | Dose-Dependent Effect
35 | O=c1c(O)c(-c2ccc(O)c(O)c2)oc2cc(O)cc(O)c12 [QUERCETIN] | Dose-Dependent Effect

Test system: not listed separately
Test: […] Colorectal cancer cells (unknown origin) assessed as regulation of immune microenvironment by measuring granzyme B positive cells at 5 to 10 uM incubated for 24 hrs by flow cytometry analysis (reference value: 16.2%)
Type: functional
Parameters: scale not given: the % may be the effect or the level left
Conditions: dose 5-10 µM

Row | Structure (SMILES) | Activity [%]
36 | Cc1ccc(-c2c(O)cc(O)c3c(=O)c(O)c(-c4ccc(O)c(O)c4)oc23)cc1 | 44.5

Test system: CT26
Test: Antitumor activity against mouse CT26 cells implanted in mouse assessed as reduction in tumor size at 15 mg/kg, ip administered for 7 days
Type: functional, organism-based
Conditions: time 7.0 day

Row | Structure (SMILES) | Activity
37 | Cc1ccc(-c2c(O)cc(O)c3c(=O)c(O)c(-c4ccc(O)c(O)c4)oc23)cc1 | Active

Test system: CT26
Test: Antitumor activity against mouse CT26 cells implanted in mouse assessed as tumor growth inhibition at 15 mg/kg, ip administered for 7 days relative to control
Type: functional
Conditions: CT26, 168 h, time 7 day, read-out: TGI

Row | Structure (SMILES) | inhibition in vivo at 15 mg/kg [%]
38 | Cc1ccc(-c2c(O)cc(O)c3c(=O)c(O)c(-c4ccc(O)c(O)c4)oc23)cc1 | 76
39 | O=c1c(O)c(-c2ccc(O)c(O)c2)oc2cc(O)cc(O)c12 [QUERCETIN] | 43.1

Test system: not listed separately
Test: Toxicity in mouse implanted with mouse CT26 cells assessed as reduction in body weight at 15 mg/kg, ip administered for 7 days and measured for 11 days
Type: organism-based
Conditions: in vivo, 168 h, time 7 day

Row | Structure (SMILES) | Activity
40 | Cc1ccc(-c2c(O)cc(O)c3c(=O)c(O)c(-c4ccc(O)c(O)c4)oc23)cc1 | Non-Toxic
41 | O=c1c(O)c(-c2ccc(O)c(O)c2)oc2cc(O)cc(O)c12 [QUERCETIN] | Non-Toxic

Test system: not listed separately
Test: cells
Conditions: Homo sapiens, HCT-116, 24 h
Description: Inhibition of Wnt pathway in human HCT-116 cells assessed as inhibition of Auxin2 expression incubated for 24 hrs by qPCR analysis

Row | Structure (SMILES) | IC50 [µM]
42 | Cc1ccc(-c2c(O)cc(O)c3c(=O)c(O)c(-c4ccc(O)c(O)c4)oc23)cc1 | 4.02
43 | O=c1c(O)c(-c2ccc(O)c(O)c2)oc2cc(O)cc(O)c12 [QUERCETIN] | 9.95
